Reference: article PMC12239085, “Silver(I) Ions Bridging Oxadiazole-2-thione Derivatives with Mitochondriotropic Agents: A Promising Strategy for Potent Anticancer Chemotherapy” (Inorganic Chemistry, 2025)
Values joined by “and” are separate entries in the source; they are usually repeats but may differ in a detail not shown here. Identical values can stand only once.

Columns and labels:
[1] = test system: MCF-7 cells; assay: AO/EB staining detection of apoptotic cells; format: cell-based, human; conditions: 48 h; for percentage of apoptotic cells: MCF-7, IC50 values, untreated 11.7 ± 2.8%
Procedure: Apoptotic MCF-7 cells were quantified and characterized using the AO/EB staining assay under fluorescence microscopy, and the results were correlated with previously observed morphological changes in the cells. The type of cell death was evaluated after incubation with complexes 1–5 for 48 h. This assay detects nuclear changes based on differences in membrane integrity between live and apoptotic cells. The fluorescent EB dye stains red only those cells that have lost membrane integrity, while the fluorescent AO dye stains both live and dead cells green. , Untreated MCF-7 cells display green radiation emitting nuclei. The percentage of apoptosis in untreated cells was calculated as 11.7 ± 2.8%. In apoptotic cells, varying degrees of changes are observed. Early stages of apoptosis are indicated by greenish-yellow fluorescent nuclei or green-yellow fragments, while late stages are characterized by orange fluorescence or the presence of orange fragments.
The MCF-7 cells were seeded into a 24-well plate (70,000 cells per well) and cultured at 37 °C for 24 h. […] Control and treated cells were collected after 48 h, the cells were harvested, washed twice with PBS and centrifuged. Twenty-five μL of cell suspension in PBS were incubated with 50 μg/mL AO and 50 μg/mL EB solution. Then, the cells were mixed gently and 10 μL of cells in suspension was placed on a glass slide and a coverslip was placed over it. At random, 300 cells were immediately observed in a fluorescent microscope (Optika inverted fluorescence microscope) and examined at ×60 magnification. ,

[2] = test system: MCF-7 cells; assay: Mitochondrial membrane permeabilization (MMP) assay; format: cell-based, human; conditions: MCF-7, IC50 values, 48 h
Excerpt: The assay relies on the fluorescence of a cationic hydrophobic dye, which accumulates in the mitochondrial membrane. Any quenching of the dye’s emitted fluorescence is attributed to the disruption of the mitochondrial membrane, resulting in the release of cytochrome C into the cytosol. ,− The percentage of fluorescence quenching in MCF-7 cells treated with compounds 1–5 is up to 20.7%, with the specific values being 20.0% (1), 20.7% (2), 2.9% (3), 5.1% (4), and 9.6% (5). […] Consequently, cell morphology, AO/EB staining, cell cycle arrest and MMP studies indicate that compounds 1–5 induce apoptosis in MCF-7 cells, primarily through direct or indirect interaction with DNA.
The MMP assay was conducted using the ″Mitochondria Membrane Potential Kit for Microplate Readers″ (MAK147), purchased from Sigma-Aldrich. MCF-7 cells were treated with 1–5 at their IC50 concentration. Fluorescence intensity was measured at an excitation wavelength of λex = 540 nm and an emission wavelength of λem = 590 nm. The experimental results included fluorescence intensities from the treated and untreated cell solutions. ,–

[3] = molecular target: T1, lipoxygenase (LOX) (Glycine max, UniProt P08170); assay: Inhibition of linoleic acid peroxidation by LOX; format: biochemical; conditions: for IC50: linoleic acid 0.3 mM, borate buffer pH 9, read-out: IC50 against LOX; for pIC50 LOX: p(IC50)= -Log(IC50), Table S4, this study
T1 sequence (P08170 1-839): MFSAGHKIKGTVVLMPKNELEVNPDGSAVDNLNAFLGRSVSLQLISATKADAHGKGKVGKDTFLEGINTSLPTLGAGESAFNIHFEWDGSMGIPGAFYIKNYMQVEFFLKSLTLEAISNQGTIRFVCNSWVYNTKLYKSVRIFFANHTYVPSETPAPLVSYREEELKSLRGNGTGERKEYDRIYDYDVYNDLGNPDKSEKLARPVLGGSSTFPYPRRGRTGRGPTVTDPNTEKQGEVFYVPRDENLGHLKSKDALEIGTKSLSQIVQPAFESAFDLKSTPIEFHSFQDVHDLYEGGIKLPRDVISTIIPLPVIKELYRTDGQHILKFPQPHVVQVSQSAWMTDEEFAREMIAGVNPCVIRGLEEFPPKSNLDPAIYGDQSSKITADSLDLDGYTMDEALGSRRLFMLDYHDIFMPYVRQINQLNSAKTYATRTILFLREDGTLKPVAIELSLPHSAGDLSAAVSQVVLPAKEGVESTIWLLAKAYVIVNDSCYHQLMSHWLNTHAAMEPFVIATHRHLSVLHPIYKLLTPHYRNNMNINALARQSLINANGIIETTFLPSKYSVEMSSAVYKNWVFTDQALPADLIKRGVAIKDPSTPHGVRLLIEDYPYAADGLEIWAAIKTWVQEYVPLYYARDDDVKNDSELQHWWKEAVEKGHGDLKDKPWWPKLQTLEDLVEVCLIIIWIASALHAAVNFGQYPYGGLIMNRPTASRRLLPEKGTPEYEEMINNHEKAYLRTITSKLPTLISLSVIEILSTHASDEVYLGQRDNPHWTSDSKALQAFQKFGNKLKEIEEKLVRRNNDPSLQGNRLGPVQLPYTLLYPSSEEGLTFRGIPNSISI
Procedure: This study performed as previously reported. , In brief, a 0.2 M borate buffer solution at pH 9 was prepared by dissolving boric acid in double-distilled water (ddw). The pH was then adjusted to 9.0 using a 50% w/w sodium hydroxide solution.
The linoleic acid substrate solution was prepared as follows: 0.05 mL of linoleic acid was dissolved in 0.05 cm^3 of 95% ethanol within a volumetric flask. Subsequently, double-distilled water was gradually added until reaching a final volume of 5 cm^3. This solution was then diluted with 30 cm^3 of borate buffer.
The LOX enzyme solution was prepared in an ice-cold bath by diluting a stock solution of 10,000 U/mL. For each reaction, 500 U of enzyme was used per 3 cm^3 of reaction mixture. One unit of LOX activity corresponds to an increase in absorbance at 234 nm of 0.001 per minute.
Enzyme activity was monitored by UV spectrophotometry. Specifically, 0.05 cm^3 of enzyme solution was added to a cuvette containing 2 cm^3 of linoleic acid solution, along with the appropriate volumes of buffer and inhibitor solutions 1–5 (concentration range of 1.5 to 12.5 μΜ). The enzymatic activity was determined by measuring the increase in absorbance at 234 nm, which corresponds to the oxidation of linoleic acid (ε = 25,000 M^–1 cm^–1). During the assays, the substrate concentration was maintained constant at 0.3 mM, while the buffer and inhibitor volumes were adjusted to achieve final inhibitor concentrations ranging from 2 to 30 μM.
The degree of LOX activity (A%) in the presence or absence of the 1–5 was calculated according to the following equation: , A%=(Vo(inthepresenceofinhibitor/Vo(withoutinhibitor))×100(%) where V o is the initial rate.
The value of the initial rate (V o, μΜ min^–1) was calculated according to the following formula: Vo=ΔC/Δt=ΔA/ε×Δt=tgα/ε where C is the concentration of the product (hydroperoxy-linoleic acid), t is the reaction time, ε is the molar extinction coefficient of hydroperoxy-linoleic acid, and tgα represents the slope of the kinetic curve obtained by plotting absorbance against time.

SMILES | relative rate of apoptotic MCF-7 cells in respect to untreated control [1] | percentage of apoptotic cells [1] [%] | percentage of fluorescence quenching (MMP) [2] [%] | IC50 [3] [µM] | pIC50 LOX [3]
c1ccc(-c2nnc([S][Ag]([PH](c3ccccc3)(c3ccccc3)c3ccccc3)([PH](c3ccccc3)(c3ccccc3)c3ccccc3)[PH](c3ccccc3)(c3ccccc3)c3ccccc3)o2)cc1 [compound 1] | 5.13 and 5.1 | 60.0 ± 5.2 | 20.0 | 2.5 | 5.6
Fc1ccccc1-c1nnc([S][Ag]([PH](c2ccccc2)(c2ccccc2)c2ccccc2)([PH](c2ccccc2)(c2ccccc2)c2ccccc2)[PH](c2ccccc2)(c2ccccc2)c2ccccc2)o1 [compound 2] | 5.8 | 64.8 ± 2.5 | 20.7 | 7.3 | 5.1
Fc1ccc(-c2nnc([S][Ag]([PH](c3ccccc3)(c3ccccc3)c3ccccc3)([PH](c3ccccc3)(c3ccccc3)c3ccccc3)[PH](c3ccccc3)(c3ccccc3)c3ccccc3)o2)cc1 [compound 3] | 4.01 and 4.0 | 46.9 ± 8.0 | 2.9 | 6.8 | 5.2
Clc1ccccc1-c1nnc([S][Ag]([PH](c2ccccc2)(c2ccccc2)c2ccccc2)([PH](c2ccccc2)(c2ccccc2)c2ccccc2)[PH](c2ccccc2)(c2ccccc2)c2ccccc2)o1 [compound 4] | 4.03 and 4.0 | 47.2 ± 5.6 | 5.1 | 7.5 | 5.1
Clc1cccc(-c2nnc([S][Ag]([PH](c3ccccc3)(c3ccccc3)c3ccccc3)([PH](c3ccccc3)(c3ccccc3)c3ccccc3)[PH](c3ccccc3)(c3ccccc3)c3ccccc3)o2)c1 [compound 5] | 5.5 | 64.3 ± 8.2 | 9.6 | 1.8 | 5.7
